Blank lines part the entries; values can stand above or below the compound they belong to.
Key:
[1] = target: T1, 72 kDa type IV collagenase (Homo sapiens, UniProt P08253); test: Inhibition of recombinant MMP-2 (unknown origin)
Stromelysin-2 = Stromelysin-2 (Homo sapiens, UniProt P09238); test: Inhibition of MMP-10 (unknown origin) using 5-FAM-Pro-Leu-OH as substrate by fluorimetric assay
[2] = target: Matrix metalloproteinase-9 (Homo sapiens, UniProt P14780); test: Inhibition of human MMP-9 using 7-methoxycoumarin-4-yl)acetyl-Pro-Leu-Gly-Leu-(N3-(2,4-dinitrophenyl)-L-2,3-diaminopropionyl)-Ala-Arg-NH2 as substrate preincubated for 5 mins followed by enzyme addition and measured after 15 mins by fluorescence based analysis
[3] = target: Macrophage metalloelastase (Homo sapiens, UniProt P39900); test: Inhibition of human MMP-12 using 7-methoxycoumarin-4-yl)acetyl-Pro-Leu-Gly-Leu-(N3-(2,4-dinitrophenyl)-L-2,3-diaminopropionyl)-Ala-Arg-NH2 as substrate preincubated for 5 mins followed by enzyme addition and measured after 15 mins by fluorescence based analysis
[4] = target: T1, 72 kDa type IV collagenase; test: Inhibition of human MMP-2 using 7-methoxycoumarin-4-yl)acetyl-Pro-Leu-Gly-Leu-(N3-(2,4-dinitrophenyl)-L-2,3-diaminopropionyl)-Ala-Arg-NH2 as substrate preincubated for 5 mins followed by enzyme addition and measured after 15 mins by fluorescence based analysis
[5] = Inhibition of UV light -induced MMP-1 expression in HDF-N cells at 1 ppm by ELISA relative to control; type: functional; conditions: Homo sapiens
[6] = Inhibition of UV light-induced MMP-1 expression in HDF-N cells at 5 ppm by ELISA relative to control; type: functional; conditions: Homo sapiens
[7] = Inhibition of UV light-induced MMP-1 expression in HDF-N cells at 10 ppm by ELISA relative to control; type: functional; conditions: Homo sapiens
Interstitial collagenase = target: T2, Interstitial collagenase (Homo sapiens, UniProt P03956); test: Inhibition of MMP-1 (unknown origin)
T2 sequence (P03956 whole entry): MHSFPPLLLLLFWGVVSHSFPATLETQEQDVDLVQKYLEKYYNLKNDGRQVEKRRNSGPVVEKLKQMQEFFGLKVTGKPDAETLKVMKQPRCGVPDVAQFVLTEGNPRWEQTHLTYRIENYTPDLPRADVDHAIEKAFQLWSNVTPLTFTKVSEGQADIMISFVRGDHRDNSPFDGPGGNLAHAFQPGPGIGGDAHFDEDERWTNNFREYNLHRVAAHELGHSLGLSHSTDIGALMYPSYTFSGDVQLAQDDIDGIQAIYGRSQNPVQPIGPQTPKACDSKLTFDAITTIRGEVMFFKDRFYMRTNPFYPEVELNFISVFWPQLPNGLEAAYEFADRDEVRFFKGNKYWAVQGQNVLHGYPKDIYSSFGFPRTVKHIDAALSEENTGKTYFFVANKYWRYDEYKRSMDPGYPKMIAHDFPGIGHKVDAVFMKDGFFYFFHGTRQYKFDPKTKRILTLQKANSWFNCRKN

[8] = Inhibition of MMP-1 mRNA expression in UVB-irradiated human Hs68 cells at 10 uM relative to control; type: functional; conditions: Hs68, light or radiation study
[9] = Inhibition of MMP-2 mRNA expression in UVB-irradiated human Hs68 cells at 10 uM relative to control; type: functional; conditions: Hs68, light or radiation study
[10] = Downregulation of UVB irradiation-induced MMP-3 expression in HDF cells at 20 uM measured after 24 hrs by Western blot analysis relative to control; type: functional, Homo sapiens, NHDF
[11] = Downregulation of UVB irradiation-induced MMP-1 expression in HDF cells at 20 uM measured after 24 hrs by Western blot analysis relative to control; type: functional, Homo sapiens, NHDF
[12] = Cytotoxicity against human CCD-986Sk cells assessed as cell viability by MTT assay relative to control; type: toxicity, cell-based; conditions: read-out: Activity
[13] = Inhibition of UVB-induced MMP-9 expression in SKH-1 hairless mouse skin at 1 nM administered topically for 1 hr followed by UVB irradiation for 15 weeks by densitometry based gelatin zymography analysis relative to control; type: functional; conditions: SKH-1, Skin of body, light or radiation study, topical, time 2521 hrs
[14] = Inhibition of UVB-induced MMP-9 expression in SKH-1 hairless mouse skin at 5 nM administered topically for 1 hr followed by UVB irradiation for 15 weeks by densitometry based gelatin zymography analysis relative to control; type: functional; conditions: SKH-1, Skin of body, light or radiation study, topical, time 2521 hrs

Stromelysin-2, sequence (P09238 whole entry): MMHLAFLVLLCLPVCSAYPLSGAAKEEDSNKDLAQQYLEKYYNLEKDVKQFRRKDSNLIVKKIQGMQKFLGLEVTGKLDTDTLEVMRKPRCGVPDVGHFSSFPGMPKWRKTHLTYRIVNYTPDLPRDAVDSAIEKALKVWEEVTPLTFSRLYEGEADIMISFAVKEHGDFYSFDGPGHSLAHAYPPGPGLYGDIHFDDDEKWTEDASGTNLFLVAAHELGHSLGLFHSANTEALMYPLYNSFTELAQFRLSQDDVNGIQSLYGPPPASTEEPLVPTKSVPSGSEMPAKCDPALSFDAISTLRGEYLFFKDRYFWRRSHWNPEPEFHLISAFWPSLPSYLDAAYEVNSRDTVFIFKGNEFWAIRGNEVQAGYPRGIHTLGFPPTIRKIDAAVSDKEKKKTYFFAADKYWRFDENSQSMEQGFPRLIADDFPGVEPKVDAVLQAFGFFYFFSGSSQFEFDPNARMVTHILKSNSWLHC
T1 sequence (P08253 whole entry): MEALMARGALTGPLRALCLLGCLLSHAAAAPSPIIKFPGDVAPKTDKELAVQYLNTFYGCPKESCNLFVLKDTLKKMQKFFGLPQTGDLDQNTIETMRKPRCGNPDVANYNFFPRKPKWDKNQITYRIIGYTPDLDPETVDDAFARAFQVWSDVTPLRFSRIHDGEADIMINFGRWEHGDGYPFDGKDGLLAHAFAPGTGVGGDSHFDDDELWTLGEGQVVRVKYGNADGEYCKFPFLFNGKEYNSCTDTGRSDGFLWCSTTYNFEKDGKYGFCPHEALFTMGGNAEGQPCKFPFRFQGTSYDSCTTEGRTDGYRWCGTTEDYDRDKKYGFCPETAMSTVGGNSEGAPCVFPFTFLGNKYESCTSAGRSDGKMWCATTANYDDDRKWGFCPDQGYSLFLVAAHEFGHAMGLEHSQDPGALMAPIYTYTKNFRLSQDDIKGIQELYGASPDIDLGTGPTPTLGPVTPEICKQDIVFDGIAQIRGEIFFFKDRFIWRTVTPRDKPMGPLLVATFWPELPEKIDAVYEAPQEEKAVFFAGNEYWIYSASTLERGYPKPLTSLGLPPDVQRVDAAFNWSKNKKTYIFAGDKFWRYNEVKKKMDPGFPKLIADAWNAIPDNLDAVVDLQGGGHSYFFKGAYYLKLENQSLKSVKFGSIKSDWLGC
Macrophage metalloelastase, sequence (P39900 whole entry): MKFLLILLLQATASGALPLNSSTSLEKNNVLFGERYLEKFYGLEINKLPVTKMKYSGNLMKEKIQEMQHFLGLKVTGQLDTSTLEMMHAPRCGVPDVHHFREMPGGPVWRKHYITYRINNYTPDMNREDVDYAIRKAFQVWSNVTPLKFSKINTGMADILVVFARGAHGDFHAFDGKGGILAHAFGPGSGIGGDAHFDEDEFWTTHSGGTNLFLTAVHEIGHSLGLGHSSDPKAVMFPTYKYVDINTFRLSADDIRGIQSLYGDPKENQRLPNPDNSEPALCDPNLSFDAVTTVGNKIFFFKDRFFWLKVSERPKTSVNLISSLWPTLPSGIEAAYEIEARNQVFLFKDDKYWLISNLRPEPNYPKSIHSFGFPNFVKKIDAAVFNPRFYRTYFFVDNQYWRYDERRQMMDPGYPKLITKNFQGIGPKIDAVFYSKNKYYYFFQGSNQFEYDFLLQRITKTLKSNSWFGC
Matrix metalloproteinase-9, sequence (P14780 whole entry): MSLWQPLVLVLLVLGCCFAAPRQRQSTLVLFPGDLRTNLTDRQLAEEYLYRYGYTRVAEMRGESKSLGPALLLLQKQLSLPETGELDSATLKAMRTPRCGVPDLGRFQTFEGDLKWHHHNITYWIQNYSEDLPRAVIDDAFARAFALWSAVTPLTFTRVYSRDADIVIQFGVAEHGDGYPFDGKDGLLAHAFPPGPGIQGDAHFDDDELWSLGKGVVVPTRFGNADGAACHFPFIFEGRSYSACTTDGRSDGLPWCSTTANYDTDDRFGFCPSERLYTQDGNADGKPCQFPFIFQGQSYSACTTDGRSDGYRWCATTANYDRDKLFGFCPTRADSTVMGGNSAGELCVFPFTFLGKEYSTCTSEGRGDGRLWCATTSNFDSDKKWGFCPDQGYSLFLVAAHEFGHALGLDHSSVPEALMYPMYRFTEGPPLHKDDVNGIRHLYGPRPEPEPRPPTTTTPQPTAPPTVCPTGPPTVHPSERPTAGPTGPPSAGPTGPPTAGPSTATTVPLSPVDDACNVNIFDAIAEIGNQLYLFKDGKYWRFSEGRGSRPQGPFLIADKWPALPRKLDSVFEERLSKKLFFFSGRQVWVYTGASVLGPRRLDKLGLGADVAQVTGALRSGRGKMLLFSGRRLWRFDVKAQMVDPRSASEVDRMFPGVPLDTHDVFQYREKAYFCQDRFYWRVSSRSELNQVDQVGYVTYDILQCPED

SMILES: O=C1c2cc(O)cc(O)c2CN1c1ccc(O)cc1
inhibition at 1 µg/mL [5]: 33.9%
inhibition at 5 µg/mL [6]: 27.6%
inhibition at 10 µg/mL [7]: 27.5%

SMILES: O=C1OC[C@H]2OC(O)[C@@H]3OC(=O)c4cc(O)c(O)c(O)c4-c4c(cc(O)c(O)c4O)C(=O)O[C@@H]3[C@@H]2OC(=O)c2cc(O)c(O)c(O)c2-c2c1cc(O)c(O)c2O (some centres not stated)
IC50 (Interstitial collagenase): 9750 nM

SMILES: COc1cc2ccnc3c2c(c1OC)NC=C3 [AAPTAMINE]
inhibition at 10 µM [8]: 53.6%
inhibition at 10 µM [9]: 87.4%

SMILES: Oc1ccc2c(c1)OC[C@]1(O)Cc3cc(O)c(O)cc3[C@H]21 [BRAZILIN]
Activity [10]: 50%
Activity [11]: 50%

SMILES: O=C(O[C@@H]1Cc2c(O)cc(O)cc2O[C@@H]1c1cc(O)c(O)c(O)c1)c1cc(O)c(O)c(O)c1 [EPIGALOCATECHIN GALLATE]
IC50 (Interstitial collagenase): 7900 nM

SMILES: COc1cc(/C=C/C(=O)O)ccc1O [FERULATE]
viability [12]: > 80%

SMILES: O=c1c(O)c(-c2cc(O)c(O)c(O)c2)oc2cc(O)cc(O)c12 [MYRICETIN]
inhibition in vivo at 0.001 µM [13]: 55%
inhibition in vivo at 0.005 µM [14]: 80%

Other lines, results leading:

IC50 [1]: 70 nM
SMILES: COc1ccc(S(=O)(=O)N(CC(=O)NO)CC(C)C)cc1

IC50 (Stromelysin-2): 24 nM
SMILES: CC(=O)N1C2NC(C)=CC(=O)N2C(c2ccc(Br)cc2)N1C(C)=O (configuration not stated)

IC50 [2]: 0.8 nM
IC50 [3]: 3.5 nM
IC50 [4]: 0.65 nM
SMILES: C[C@H](C[C@H](CO)NC(=O)c1ccc(Oc2ccccc2)cc1)C(=O)NO

IC50 (Stromelysin-2): 53 nM
SMILES: COc1ccc(/C=N/Nc2nc(C)cc(=O)[nH]2)cc1

IC50 (Stromelysin-2): 1630 nM
SMILES: CC(=O)N1c2nc(=O)cc(C)n2C(c2ccc(Br)cc2)N1C(C)=O (configuration not stated)

IC50 [2]: 2.8 nM
IC50 [3]: 2.6 nM
IC50 [4]: 1.1 nM
SMILES: C[C@H](C[C@H](COC(=O)CCC(=O)O)NC(=O)c1ccc(Oc2ccccc2)cc1)C(=O)NO

Source: ChEMBL document CHEMBL5512611, “Discovery of matrix metalloproteinase inhibitors as anti-skin photoaging agents” (Eur J Med Chem, 2024)
